Data published in patent US11021521B2, “Pore-modified gram-negative bacteria and uses thereof” (priority 2015, dated 2021).
Converted amounts (≈) assume the structure as drawn. Where two headings read alike, the source gives them in different places.

Tests used:
Test in all cases: microbe, parasite or virus in culture
Format in all cases: cell-based
[1] = test system: P. aeruginosa PAO1-LAC (wild type, empty cassette); conditions: Pseudomonas aeruginosa, at least three independent measurements, read-out: MIC
[2] = test system: B. thailandensis BtΔ2-RHA-BtPore (efflux-deficient, hyperporinated)
[3] = test system: A. baumannii Ab-ARA-EcPore (hyperporinated); conditions: Ab-ARA-EcPore, at least three independent measurements
[4] = test system: B. thailandensis Bt-RHA (wild type, empty cassette)
[5] = test system: B. thailandensis Bt-RHA-BtPore (hyperporinated)
[6] = test system: B. cepacia Bc-RHA (wild type, empty cassette)
[7] = test system: A. baumannii AbΔ3-ARA-EcPore (efflux-deficient, hyperporinated); conditions: AbΔ3-ARA-EcPore, at least three independent measurements
[8] = test system: A. baumannii AbΔ3-ARA (efflux-deficient); conditions: AbΔ3-ARA, at least three independent measurements
[9] = test system: P. aeruginosa PAO1-LAC-EcPore (hyperporinated); conditions: Pseudomonas aeruginosa; PAO1-LAC-EcPore; at least three independent measurements; read-out: MIC
[10] = test system: A. baumannii Ab-ARA (wild type, empty cassette); conditions: at least three independent measurements
[11] = test system: B. thailandensis BtΔ2-RHA (efflux-deficient)
[12] = test system: B. cepacia Bc-RHA-BtPore (hyperporinated); conditions: Bc-RHA-BtPore
[13] = test system: P. aeruginosa PaΔ3-LAC (efflux-deficient); conditions: Pseudomonas aeruginosa, at least three independent measurements, read-out: MIC
[14] = test system: P. aeruginosa PaΔ3-LAC-EcPore (efflux-deficient, hyperporinated); conditions: Pseudomonas aeruginosa; PaΔ3-LAC-EcPore; at least three independent measurements; read-out: MIC
[15] = Acinetobacter baumannii, read-out: MIC
[16] = Burkholderia cepacia, read-out: MIC

| Compound | MIC ([2]; Burkholderia thailandensis) [µg/mL] | MIC [3, 15] [µg/mL] | MIC ([4]; Burkholderia thailandensis) [µg/mL] | MIC ([5]; Burkholderia thailandensis) [µg/mL] | MIC [6, 16] [µg/mL] | MIC [7, 15] [µg/mL] | MIC [8, 15] [µg/mL] | MIC [9] [µg/mL] | MIC [10, 15] [µg/mL] | MIC ([11]; Burkholderia thailandensis) [µg/mL] | MIC [12, 16] [µg/mL] | MIC [13] [µg/mL] | MIC [14] [µg/mL] | also measured |
| --- | --- | --- | --- | --- | --- | --- | --- | --- | --- | --- | --- | --- | --- | --- |
| NCC[C@H](O)C(=O)N[C@@H]1C[C@H](N)[C@@H](O[C@H]2O[C@H](CN)[C@@H](O)[C@H](O)[C@H]2O)[C@H](O)[C@H]1O[C@H]1O[C@H](CO)[C@@H](O)[C@H](N)[C@H]1O [Amikacin] | 2 (≈ 3.42 µM) | 4 (≈ 6.83 µM) | 256 (≈ 437 µM) | 256 (≈ 437 µM) | 128 (≈ 219 µM) | 4 (≈ 6.83 µM) | 4 (≈ 6.83 µM) | 2 (≈ 3.42 µM) | 8 (≈ 13.7 µM) | 4 (≈ 6.83 µM) | 8 (≈ 13.7 µM) | – | – | MIC [1]: 2 µg/mL (≈ 3.42 µM) |
| CC1(C)S[C@@H]2[C@H](NC(=O)[C@H](N)c3ccccc3)C(=O)N2[C@H]1C(=O)O [Ampicillin] | – | – | – | – | – | – | – | 16 (≈ 45.8 µM) | 2050 (≈ 5860 µM) | – | 512 (≈ 1470 µM) | – | – | – |
| CC[C@H]1OC(=O)[C@H](C)[C@@H](O[C@H]2C[C@@](C)(OC)[C@@H](O)[C@H](C)O2)[C@H](C)[C@@H](O[C@@H]2O[C@H](C)C[C@H](N(C)C)[C@H]2O)[C@](C)(O)C[C@@H](C)CN(C)[C@H](C)[C@@H](O)[C@]1(C)O [Azithromycin] | 0.032 (≈ 0.0427 µM) | 0.04 (≈ 0.0534 µM) | 128 (≈ 171 µM) | 64 (≈ 85.4 µM) | 64 (≈ 85.4 µM) | 0.08 (≈ 0.107 µM) | 0.31 (≈ 0.414 µM) | 4 (≈ 5.34 µM) | 0.31 (≈ 0.414 µM) | 1 (≈ 1.34 µM) | 1 to 2 (≈ 1.34 to 2.67 µM) | 4 (≈ 5.34 µM) | 0.063 (≈ 0.0841 µM) | – |
| CC1(C)S[C@@H]2[C@H](NC(=O)C(C(=O)O)c3ccccc3)C(=O)N2[C@H]1C(=O)O (stereo partly shown) [Carbenicillin] | 8 (≈ 21.1 µM) | 32 (≈ 84.6 µM) | – | 256 (≈ 677 µM) | > 1020 | 64 (≈ 169 µM) | 2050 (≈ 5410 µM) | 2 (≈ 5.29 µM) | 2050 (≈ 5410 µM) | 256 (≈ 677 µM) | 128 (≈ 338 µM) | 1 (≈ 2.64 µM) | 0.125 (≈ 0.33 µM) | MIC [4]: 256 to 512 µg/mL |
| O=C(N[C@H](CO)[C@H](O)c1ccc([N+](=O)[O-])cc1)C(Cl)Cl [Chloramphenicol] | 1 (≈ 3.09 µM) | 8 (≈ 24.8 µM) | 8 (≈ 24.8 µM) | 8 (≈ 24.8 µM) | 16 (≈ 49.5 µM) | 4 (≈ 12.4 µM) | 8 (≈ 24.8 µM) | 2 (≈ 6.19 µM) | 32 (≈ 99 µM) | 4 (≈ 12.4 µM) | 4 (≈ 12.4 µM) | 1 (≈ 3.09 µM) | 0.125 (≈ 0.387 µM) | – |
| O=C(O)c1cn(C2CC2)c2cc(N3CCNCC3)c(F)cc2c1=O [Ciprofloxacin] | – | – | – | – | 1 (≈ 3.02 µM) | – | – | – | – | – | – | – | – | – |
| Cc1onc(-c2ccccc2Cl)c1C(=O)N[C@@H]1C(=O)N2[C@@H]1SC(C)(C)[C@@H]2C(=O)O [Cloxacillin] | 0.5 (≈ 1.15 µM) | 128 (≈ 294 µM) | 256 (≈ 587 µM) | – | 256 (≈ 587 µM) | 16 (≈ 36.7 µM) | 128 (≈ 294 µM) | 512 (≈ 1170 µM) | 1020 (≈ 2350 µM) | 32 (≈ 73.4 µM) | 4 (≈ 9.18 µM) | 128 (≈ 294 µM) | 8 (≈ 18.4 µM) | MIC [5]: 128 to 256 µg/mL |
| C[C@H]1c2cccc(O)c2C(=O)C2=C(O)[C@]3(O)C(=O)C(C(N)=O)=C(O)[C@@H](N(C)C)[C@@H]3[C@@H](O)[C@@H]21 [Doxycycline] | 0.01 (≈ 0.0225 µM) | 0.02 (≈ 0.045 µM) | 3 (≈ 6.75 µM) | 1.5 (≈ 3.38 µM) | 6 (≈ 13.5 µM) | 0.0016 (≈ 0.0036 µM) | 0.0016 (≈ 0.0036 µM) | – | 0.04 (≈ 0.09 µM) | 0.02 (≈ 0.045 µM) | 3 (≈ 6.75 µM) | – | – | – |
| CC[C@H]1OC(=O)[C@H](C)[C@@H](O[C@H]2C[C@@](C)(OC)[C@@H](O)[C@H](C)O2)[C@H](C)[C@@H](O[C@@H]2O[C@H](C)C[C@H](N(C)C)[C@H]2O)[C@](C)(O)C[C@@H](C)C(=O)[C@H](C)[C@@H](O)[C@]1(C)O [Erythromycin] | 0.5 (≈ 0.681 µM) | – | 512 (≈ 698 µM) | – | – | 0.08 (≈ 0.109 µM) | – | 2 (≈ 2.73 µM) | 5 (≈ 6.81 µM) | 1 (≈ 1.36 µM) | 8 to 16 (≈ 10.9 to 21.8 µM) | 16 (≈ 21.8 µM) | – | – |
| NC[C@H]1O[C@H](O[C@H]2[C@H](O)[C@@H](O[C@H]3O[C@H](CO)[C@@H](O)[C@H](N)[C@H]3O)[C@H](N)C[C@@H]2N)[C@H](O)[C@@H](O)[C@@H]1O [Kanamycin] | 2 (≈ 4.13 µM) | – | > 64 | 64 (≈ 132 µM) | 64 (≈ 132 µM) | – | – | – | – | 4 (≈ 8.26 µM) | 4 to 8 (≈ 8.26 to 16.5 µM) | – | – | – |
| C[C@H]1COc2c(N3CCN(C)CC3)c(F)cc3c(=O)c(C(=O)O)cn1c23 [Levofloxacin] | – | 0.125 (≈ 0.346 µM) | 2 (≈ 5.53 µM) | 1 (≈ 2.77 µM) | 2 (≈ 5.53 µM) | – | – | 0.063 (≈ 0.174 µM) | 0.125 (≈ 0.346 µM) | – | 0.06 (≈ 0.166 µM) | – | – | – |
| CCn1cc(C(=O)O)c(=O)c2ccc(C)nc21 [Nalidixic acid] | 1.5 (≈ 6.46 µM) | 1.5 (≈ 6.46 µM) | 48 (≈ 207 µM) | 24 (≈ 103 µM) | 24 (≈ 103 µM) | 0.75 (≈ 3.23 µM) | 1.5 (≈ 6.46 µM) | 32 (≈ 138 µM) | 3 (≈ 12.9 µM) | 12 (≈ 51.7 µM) | 3 (≈ 12.9 µM) | 8 (≈ 34.4 µM) | 2 (≈ 8.61 µM) | – |
| CO[C@H]1/C=C/O[C@@]2(C)Oc3c(C)c(O)c4c(O)c(c(/C=N/N5CCN(C)CC5)c(O)c4c3C2=O)NC(=O)/C(C)=C\C=C\[C@H](C)[C@H](O)[C@@H](C)[C@@H](O)[C@@H](C)[C@H](OC(C)=O)[C@@H]1C [Rifampin] | 0.03 (≈ 0.0365 µM) | 0.5 (≈ 0.608 µM) | 16 (≈ 19.4 µM) | 8 (≈ 9.72 µM) | 8 (≈ 9.72 µM) | 0.25 (≈ 0.304 µM) | 1 (≈ 1.22 µM) | – | 2 (≈ 2.43 µM) | 4 (≈ 4.86 µM) | 0.06 (≈ 0.0729 µM) | – | – | – |
| CN(C)[C@@H]1C(O)=C(C(N)=O)C(=O)[C@@]2(O)C(O)=C3C(=O)c4c(O)cccc4[C@@](C)(O)[C@H]3C[C@@H]12 [Tetracycline] | 0.06 (≈ 0.135 µM) | 0.031 (≈ 0.0698 µM) | 2 (≈ 4.5 µM) | 2 (≈ 4.5 µM) | > 8 | 0.004 (≈ 0.009 µM) | 0.008 (≈ 0.018 µM) | 0.5 (≈ 1.13 µM) | 0.125 (≈ 0.281 µM) | 0.125 (≈ 0.281 µM) | 8 (≈ 18 µM) | 2 (≈ 4.5 µM) | 0.125 (≈ 0.281 µM) | – |
| Gentamicin | – | – | – | – | – | – | – | – | – | – | – | – | – | MIC [2]: 2 µg/mL; MIC [3]: 4 µg/mL; MIC [4]: >64 µg/mL; MIC [5]: >64 µg/mL; MIC [6]: 128 µg/mL; MIC [7]: 8 µg/mL; MIC [8]: 8 µg/mL; MIC [10]: 4 µg/mL; MIC [11]: 4 µg/mL; MIC [12]: 16 µg/mL |
